From patent US20240208937A1, “Compounds and Their Use for Treatment of Hemoglobinopathies” (Bristol-Myers Squibb Company, priority 2022, published 2024)

Legend:
Type in all cases: cell-based
[1] = tested on: fetal hemoglobin (HbF) in GCSF-mobilized human CD34+ cells; assay: HbF Induction Assay; details: 168 h; compound 1 μM, 7 days, erythroid-differentiated human CD34+ cells, flow cytometry; DMSO baseline 15% HbF positive cells
Description: The expansion, differentiation, and maturation of GCSF-mobilized human CD34^+ (STEMCELL Technologies Inc.) cells towards erythroid lineage cells were performed using a two-phase liquid culture model (Moutouh-de Parseval L A, el al. Pomalidomide and lenalidomide regulate erythropoiesis and fetal hemoglobin production in human CD34+ cells. J Clin Invest. 2008 January; 118(1):248-58). In the first phase, GCSF-mobilized human CD34^+ cells were cultured using StemSpan™-XF (STEMCELL Technologies Inc.) media supplemented with 1×BIT 9500, Penicillin-Streptomycin (50 U/mL), 100 ng/mL recombinant human (rh) SCF, 100 ng/mL rh Flt3-L, 20 ng/mL rh IL-3 and 10 ng/mL rh EPO and the growth of cells maintained in exponential phase for 7 days at 37° C. with 5% CO2 to support expansion and progenitor differentiation prior the second phase and treatment with compounds. In the second phase, culture media was changed to StemSpan™-XF media supplemented with 1×BIT 9500, Penicillin-Streptomycin (50 U/mL), 50 ng/mL rh SCF and 40 ng/mL rh EPO to promote further differentiation and maturation of the erythrocytes and to initiate treatment with compounds. Compounds were dispensed in duplicate at a final concentration of 1 μM in a final DMSO amount of 0.1%. Fresh compound was reapplied, and cell density was kept constant every 2 days. After 7 days, the cells were assessed for viability and fetal hemoglobin expression using flow cytometry. For viability analysis, eBioscience™ Fixable Viability Dye eFluor™ 780 (1:1000, eBioscience; Cat #65-0865-14) was added to the cells and kept in the dark for 10 minutes. For analysis of fetal hemoglobin (HbF), cells were fixed and permeabilized using Fixation Buffer (BioLegend; Cat #420801 and Intracellular staining permeabilization buffer (BioLegend, Cat #420201) following manufacturer's instructions. During permeabilization step, cells were stained with PE-labelled Mouse Anti-Human Fetal Hemoglobin (1:10, clone 2D12; BD Biosciences, Cat #BDB560041) incubated at room temperature for 20 minutes and protected from light. PE-labelled Mouse anti-IgG k, (1:10 clone MOPC-21; BD Biosciences, Cat# BDB551436) was used as an isotype control.
Viability, cell count, and fetal hemoglobin (HbF) levels were measured using an Attune NXT flow cytometer (Thermofisher) and the data analyzed using the FCS express software (De Novo Software). In Table 1 below, the effects of compounds of formula (I), formula (I′), formula (II), formula (II′), and formula (III) on % viable cells, viable cell count, on the % HbF positive cells and the median fluorescent intensity (MFI) of the HbF positive cell population compared to the DMSO controls can be viewed. All gates were set using the isotype negative control. The baseline % HbF positive cells for DMSO-treated control cells was 15%. Compounds of formula (I), formula (I′), formula (II), formula (II′), and formula (III) having HbF induction between 66% and 100% are level A. Compounds of formula (I), formula (I′), formula (II), formula (II′), and formula (III) having HbF induction between 33% and 66% are level B. Compounds of formula (I), formula (I′), formula (II), formula (II′), and formula (III) having HbF induction % less than 33% are level C. For certain compounds of formula (I), formula (I′), formula (II), formula (II′), and formula (III) % HbF induction values 0-33% (activity level C), between 33% and 66% (activity level B), and between 67% and 100% (activity level A) are shown in Table 2 below.

[2] = molecular target: WIZ (Widely interspaced zinc finger) (Homo sapiens (Human), UniProt O95785+Q96SW2); assay: HUDEP-2 WIZ HiBiT degradation assay; details: HUDEP-2 WIZ HiBiT cells, 24 hours treatment, luminescence; for DC50: read-out: WIZ EC50
Description: (§1) The HiBiT degradation assay for WIZ and ZBTB7A in HUDEP-2 cells was performed as described below. HUDEP-2 cells engineered to express a HiBiT tag in either the WIZ (Widely interspaced zinc finger) or ZBTB7A (Zinc Finger And BTB Domain Containing 7A) proteins were maintained in low attachment flasks in StemSpan SFEM II media supplemented with Penicillin-Streptomycin (50 U/mL), rhSCF (50 ng/mL), rhEPO (3 IU/mL), dexamethasone (0.4 μg/mL) and doxycycline (1 μg/mL). Prior to start of the assay, cell count and viability were measured by trypan blue exclusion using the Vi-cell XR cell viability analyzer. For the HUDEP-2 WIZ HiBiT assay, cells were transferred to a 50 mL conical and centrifuged at 500 g for five minutes. Cells were resuspended in fresh StemSpan SFEM II media supplemented with Penicillin-Streptomycin (50 U/mL), rhSCF (50 ng/mL), rhEPO (3 IU/mL), dexamethasone (0.4 μg/mL) and doxycycline (1 μg/mL) at a density of 1.0×10^6 cells/ml. Forty microliters of cell suspension was dispensed into 384-well Low Flange White Flat Bottom Polystyrene TC-treated Microplates containing pre-dispensed compounds, using a VIAFLO 384 liquid hander, and placed in a 37° C. incubator with 5% CO2. […] After 24 hours of treatment, 40 μL Nano-Glo HiBiT Lytic Detection System reagent was dispensed into each well using a VIAFLO 384 liquid hander. Plates were incubated for 25 minutes at room temperature and the luminescence was read as relative luminescent units using the EnVision plate reader. EC50 and Y-min values were calculated using curves calculated from dotmatics software after the normalization to the DMSO control of 10 different concentrations: 10, 3.33, 1.11, 0.37, 0.12, 0.04 0.0137, 0.0046, 0.0015 and 0.0005 μM respectively.

[3] = molecular target: ZBTB7A (Zinc Finger And BTB Domain Containing 7A) (Homo sapiens (Human), UniProt O95365+Q96SW2); assay: HUDEP-2 ZBTB7A HiBiT degradation assay; details: HUDEP-2 ZBTB7A HiBiT cells, 24 hours treatment, luminescence; for DC50: read-out: ZBTB7A EC50
Description: as §1
For the HUDEP-2 ZBTB7A HiBiT assay, cell count and viability were measured by trypan blue exclusion using the Vi-cell XR cell viability analyzer and the cells were transferred to a 50 mL conical and centrifuged at 500 g for five minutes. Cells were resuspended in fresh IMDM media supplemented with L-Glutamine (1×), Penicillin-Streptomycin (50 U/mL), holo-transferrin (330 μg/mL), heparin (2 IU/mL), r-human Insulin (10 μg/mL), rhEPO (3 IU/mL), rhSCF (100 ng/mL)+Dox (1 μg/mL) and 5% human plasma in low attachment flasks, which were placed in a 37° C. incubator with 5% CO2. After 48 hours, cell count and viability were measured by trypan blue exclusion using the Vi-cell XR cell viability analyzer. The HUDEP-2 ZBTB7A cells were transferred to a 50 mL conical, centrifuged at 500 g for five minutes and resuspended at a density of 1.0×10^6 cells/ml in IMDM media supplemented with L-Glutamine (1×), Penicillin-Streptomycin (50 U/mL), holo-transferrin (330 μg/mL), heparin (2 IU/mL), r-human Insulin (10 μg/mL), rhEPO (3 IU/mL), rhSCF (100 ng/mL)+Dox (1 μg/mL) and 5% human plasma. Forty microliters of cell suspension was dispensed into 384-well Low Flange White Flat Bottom Polystyrene TC-treated Microplates containing pre-dispensed compounds, using a VIAFLO 384 liquid hander, and placed in a 37° C. incubator with 5% CO2. […] After 24 hours of treatment, 40 μL Nano-Glo HiBiT Lytic Detection System reagent was dispensed into each well using a VIAFLO 384 liquid hander. Plates were incubated for 25 minutes at room temperature and the luminescence was read as relative luminescent units using the EnVision plate reader. EC50 and Y-min values were calculated using curves calculated from dotmatics software after the normalization to the DMSO control of 10 different concentrations: 10, 3.33, 1.11, 0.37, 0.12, 0.04 0.0137, 0.0046, 0.0015 and 0.0005 μM respectively.

Chain of WIZ (Widely interspaced zinc finger) (O95785 whole entry, the tested form may be a part): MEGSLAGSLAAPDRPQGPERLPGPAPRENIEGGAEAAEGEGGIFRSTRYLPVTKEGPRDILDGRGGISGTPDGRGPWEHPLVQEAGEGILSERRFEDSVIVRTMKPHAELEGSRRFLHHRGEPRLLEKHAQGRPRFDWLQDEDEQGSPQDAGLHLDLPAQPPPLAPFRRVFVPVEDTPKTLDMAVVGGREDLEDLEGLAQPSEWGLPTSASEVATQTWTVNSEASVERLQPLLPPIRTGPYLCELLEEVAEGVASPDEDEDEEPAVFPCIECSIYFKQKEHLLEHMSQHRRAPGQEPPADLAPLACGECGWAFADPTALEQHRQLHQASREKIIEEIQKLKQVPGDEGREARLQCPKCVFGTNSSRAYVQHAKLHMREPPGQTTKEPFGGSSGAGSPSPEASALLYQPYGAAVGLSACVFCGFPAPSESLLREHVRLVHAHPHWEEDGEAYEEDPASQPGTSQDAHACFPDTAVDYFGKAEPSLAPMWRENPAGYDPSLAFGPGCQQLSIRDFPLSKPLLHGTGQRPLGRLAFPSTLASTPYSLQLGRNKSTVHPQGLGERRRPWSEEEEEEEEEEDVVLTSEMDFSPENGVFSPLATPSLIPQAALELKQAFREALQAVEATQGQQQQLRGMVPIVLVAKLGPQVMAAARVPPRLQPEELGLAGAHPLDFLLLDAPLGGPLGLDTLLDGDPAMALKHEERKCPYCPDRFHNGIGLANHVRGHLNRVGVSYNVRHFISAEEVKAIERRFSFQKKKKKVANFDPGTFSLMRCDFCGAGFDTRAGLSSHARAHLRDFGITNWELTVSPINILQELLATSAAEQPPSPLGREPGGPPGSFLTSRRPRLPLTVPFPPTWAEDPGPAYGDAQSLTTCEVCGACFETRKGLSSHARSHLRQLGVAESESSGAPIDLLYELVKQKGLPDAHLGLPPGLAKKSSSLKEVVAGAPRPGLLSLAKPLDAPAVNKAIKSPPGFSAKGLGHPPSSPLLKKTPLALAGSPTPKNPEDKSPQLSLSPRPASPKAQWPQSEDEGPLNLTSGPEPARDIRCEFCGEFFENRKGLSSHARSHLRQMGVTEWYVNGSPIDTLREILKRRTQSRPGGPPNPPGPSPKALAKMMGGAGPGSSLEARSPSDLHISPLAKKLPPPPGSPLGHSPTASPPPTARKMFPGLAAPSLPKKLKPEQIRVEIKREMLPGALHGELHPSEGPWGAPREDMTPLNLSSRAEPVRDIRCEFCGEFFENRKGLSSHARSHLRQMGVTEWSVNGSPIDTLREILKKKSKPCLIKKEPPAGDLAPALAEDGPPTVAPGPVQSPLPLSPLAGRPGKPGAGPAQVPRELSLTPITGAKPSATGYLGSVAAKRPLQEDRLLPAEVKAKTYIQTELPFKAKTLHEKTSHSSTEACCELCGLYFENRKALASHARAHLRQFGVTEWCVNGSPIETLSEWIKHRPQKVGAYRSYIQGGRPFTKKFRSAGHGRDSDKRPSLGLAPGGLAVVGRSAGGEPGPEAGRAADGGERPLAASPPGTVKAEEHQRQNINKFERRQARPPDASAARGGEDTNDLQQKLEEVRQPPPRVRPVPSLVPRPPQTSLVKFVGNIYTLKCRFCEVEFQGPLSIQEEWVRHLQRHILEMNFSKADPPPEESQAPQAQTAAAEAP
Chain of WIZ (Widely interspaced zinc finger) (Q96SW2 whole entry, the tested form may be a part): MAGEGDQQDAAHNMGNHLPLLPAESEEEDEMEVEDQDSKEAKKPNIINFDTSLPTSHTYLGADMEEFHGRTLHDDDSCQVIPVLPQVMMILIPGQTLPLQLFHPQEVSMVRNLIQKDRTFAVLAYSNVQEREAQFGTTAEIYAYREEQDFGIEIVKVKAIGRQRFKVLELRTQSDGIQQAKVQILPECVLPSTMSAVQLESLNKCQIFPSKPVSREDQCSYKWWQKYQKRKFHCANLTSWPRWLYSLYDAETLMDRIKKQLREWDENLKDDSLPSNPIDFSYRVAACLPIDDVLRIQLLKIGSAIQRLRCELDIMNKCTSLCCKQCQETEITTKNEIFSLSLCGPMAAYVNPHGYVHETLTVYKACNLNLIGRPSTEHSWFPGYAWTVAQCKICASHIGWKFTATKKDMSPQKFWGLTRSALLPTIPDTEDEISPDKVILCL
Chain of WIZ (Widely interspaced zinc finger) (Q16531 whole entry partner, the tested form may be a part): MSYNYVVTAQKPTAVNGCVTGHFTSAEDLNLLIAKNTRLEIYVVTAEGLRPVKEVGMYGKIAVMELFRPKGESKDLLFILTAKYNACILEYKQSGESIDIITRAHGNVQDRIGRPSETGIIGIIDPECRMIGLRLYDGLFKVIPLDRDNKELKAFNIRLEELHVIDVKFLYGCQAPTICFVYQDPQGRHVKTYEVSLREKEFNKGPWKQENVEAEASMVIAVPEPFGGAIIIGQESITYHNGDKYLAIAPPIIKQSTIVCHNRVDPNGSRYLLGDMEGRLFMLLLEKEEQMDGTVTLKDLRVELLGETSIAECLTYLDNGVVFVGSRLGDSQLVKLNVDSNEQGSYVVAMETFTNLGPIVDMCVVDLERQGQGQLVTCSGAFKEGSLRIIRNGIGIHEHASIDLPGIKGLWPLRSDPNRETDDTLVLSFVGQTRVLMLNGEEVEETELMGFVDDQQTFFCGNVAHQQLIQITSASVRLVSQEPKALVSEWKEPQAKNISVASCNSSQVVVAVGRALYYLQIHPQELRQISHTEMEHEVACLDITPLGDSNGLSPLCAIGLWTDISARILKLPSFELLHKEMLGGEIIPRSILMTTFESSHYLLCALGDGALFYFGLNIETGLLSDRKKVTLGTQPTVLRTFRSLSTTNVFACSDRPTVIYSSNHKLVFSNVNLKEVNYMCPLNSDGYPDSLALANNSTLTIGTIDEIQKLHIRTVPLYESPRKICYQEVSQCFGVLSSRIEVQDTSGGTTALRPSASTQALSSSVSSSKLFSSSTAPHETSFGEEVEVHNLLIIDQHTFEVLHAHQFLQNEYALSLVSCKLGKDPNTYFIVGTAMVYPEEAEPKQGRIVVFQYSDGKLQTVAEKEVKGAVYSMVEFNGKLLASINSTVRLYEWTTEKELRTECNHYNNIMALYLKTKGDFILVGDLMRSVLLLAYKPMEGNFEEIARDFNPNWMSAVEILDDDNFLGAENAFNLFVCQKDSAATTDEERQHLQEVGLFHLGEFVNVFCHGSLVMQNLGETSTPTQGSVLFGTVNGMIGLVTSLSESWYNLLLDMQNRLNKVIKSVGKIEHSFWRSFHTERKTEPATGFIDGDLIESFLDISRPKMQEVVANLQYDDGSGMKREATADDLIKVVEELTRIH
Chain of ZBTB7A (Zinc Finger And BTB Domain Containing 7A) (O95365 whole entry, the tested form may be a part): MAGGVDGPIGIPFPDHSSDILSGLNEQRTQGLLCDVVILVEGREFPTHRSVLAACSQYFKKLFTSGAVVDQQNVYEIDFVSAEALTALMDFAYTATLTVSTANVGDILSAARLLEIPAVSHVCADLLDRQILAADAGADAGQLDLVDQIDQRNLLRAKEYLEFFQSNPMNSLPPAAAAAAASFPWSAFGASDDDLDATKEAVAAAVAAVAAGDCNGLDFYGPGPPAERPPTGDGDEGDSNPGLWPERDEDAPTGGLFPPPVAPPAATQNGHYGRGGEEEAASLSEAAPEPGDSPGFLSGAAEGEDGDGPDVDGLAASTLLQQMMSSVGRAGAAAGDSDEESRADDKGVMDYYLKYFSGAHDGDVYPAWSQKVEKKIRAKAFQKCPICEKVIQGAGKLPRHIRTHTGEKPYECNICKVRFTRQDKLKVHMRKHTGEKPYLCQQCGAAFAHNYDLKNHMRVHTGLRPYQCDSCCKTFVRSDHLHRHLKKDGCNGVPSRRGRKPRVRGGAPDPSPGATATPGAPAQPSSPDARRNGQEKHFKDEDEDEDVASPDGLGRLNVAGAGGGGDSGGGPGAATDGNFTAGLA
Chain of ZBTB7A (Zinc Finger And BTB Domain Containing 7A) (Q96SW2 whole entry, the tested form may be a part): as the sequence (Q96SW2 whole entry, the tested form may be a part) above
Chain of ZBTB7A (Zinc Finger And BTB Domain Containing 7A) (Q16531 whole entry partner, the tested form may be a part): as the sequence (Q16531 whole entry partner, the tested form may be a part) above

Row | SMILES | activation at 1 µM [1] | DC50 [2] | DC50 [3] | EC50 [2] | EC50 [3]
1 | Cc1cc(-c2cc3onc(C)c3cc2Nc2cccc3c2C(=O)N(C2CCC(=O)NC2=O)C3=O)ccn1 (stereo not drawn) [Compound 8, 2-(2,6-dioxopiperidin-3-yl)-4-((3-methyl-6-(2-methylpyridin-4-yl)benzo[d]isoxazol-5-yl)amino)isoindoline-1,3-dione] | 66 to 100% | 0.01 to 0.1 µM | 0.03 to 0.1 µM |  | 
2 | Cc1cc(Oc2ccccc2)c(Nc2cccc3c2C(=O)N(C2CCC(=O)NC2=O)C3=O)cn1 (stereo not drawn) [Compound 21, 2-(2,6-dioxopiperidin-3-yl)-4-((6-methyl-4-phenoxypyridin-3-yl)amino)isoindoline-1,3-dione] | 33 to 66% |  | 0.03 to 0.1 µM | < 0.01 µM | 
3 | Cn1ncc2cc(Nc3cccc4c3C(=O)N(C3CCC(=O)NC3=O)C4=O)c(-c3cccc(C(F)(F)F)c3)cc21 (stereo not drawn) [Compound 28, 2-(2,6-dioxopiperidin-3-yl)-4-((1-methyl-6-(3-(trifluoromethyl)phenyl)-1H-indazol-5-yl)amino)isoindoline-1,3-dione] | < 33% | > 0.1 µM |  |  | > 0.1 µM
4 | O=C1CCC(N2C(=O)c3cccc(Nc4cc5cnn(C6CCOCC6)c5cc4-c4ccnc(C(F)F)c4)c3C2=O)C(=O)N1 (stereo not drawn) [Compound 11, 4-((6-(2-(difluoromethyl)pyridin-4-yl)-1-(tetrahydro-2H-pyran-4-yl)-1H-indazol-5-yl)amino)-2-(2,6-dioxopiperidin-3-yl)isoindoline-1,3-dione] | 66 to 100% | > 0.1 µM |  |  | > 0.1 µM
5 | Cc1cc(-c2cc3ncn(C4CC4)c3cc2Nc2cccc3c2C(=O)N(C2CCC(=O)NC2=O)C3=O)ccn1 (stereo not drawn) [Compound 2, 4-((1-cyclopropyl-5-(2-methylpyridin-4-yl)-1H-benzo[d]imidazol-6-yl)amino)-2-(2,6-dioxopiperidin-3-yl)isoindoline-1,3-dione] | 66 to 100% | < 0.01 µM | < 0.03 µM |  | 
6 | COc1cc2c(cnn2C2CCOCC2)cc1Nc1cccc2c1C(=O)N(C1CCC(=O)NC1=O)C2=O (stereo not drawn) [Compound 18, 2-(2,6-dioxopiperidin-3-yl)-4-((6-methoxy-1-(tetrahydro-2H-pyran-4-yl)-1H-indazol-5-yl)amino)isoindoline-1,3-dione] | 66 to 100% |  | 0.03 to 0.1 µM | < 0.01 µM | 
7 | Cn1ncc2cc(Nc3cccc4c3C(=O)N(C3CCC(=O)NC3=O)C4=O)c(Oc3ccccc3)cc21 (stereo not drawn) [Compound 15, 2-(2,6-dioxopiperidin-3-yl)-4-((1-methyl-6-phenoxy-1H-indazol-5-yl)amino)isoindoline-1,3-dione] | 66 to 100% |  | 0.03 to 0.1 µM | < 0.01 µM | 
8 | Cc1cc(-c2cc3nc(C)n(C)c3cc2Nc2cccc3c2C(=O)N(C2CCC(=O)NC2=O)C3=O)ccn1 (stereo not drawn) [Compound 1, 4-((1,2-dimethyl-5-(2-methylpyridin-4-yl)-1H-benzo[d]imidazol-6-yl)amino)-2-(2,6-dioxopiperidin-3-yl)isoindoline-1,3-dione] | 66 to 100% | 0.01 to 0.1 µM | < 0.03 µM |  | 
9 | Cn1ncc2cc(Nc3cccc4c3C(=O)N(C3CCC(=O)NC3=O)C4=O)c(Oc3ccc(F)cc3)cc21 (stereo not drawn) [Compound 17, 2-(2,6-dioxopiperidin-3-yl)-4-((6-(4-fluorophenoxy)-1-methyl-1H-indazol-5-yl)amino)isoindoline-1,3-dione] | 66 to 100% | 0.01 to 0.1 µM | 0.03 to 0.1 µM |  | 
10 | Cc1c(Nc2cccc3c2C(=O)N(C2CCC(=O)NC2=O)C3=O)ccc2c1cnn2C1CCOCC1 (stereo not drawn) [Compound 20, 2-(2,6-dioxopiperidin-3-yl)-4-((4-methyl-1-(tetrahydro-2H-pyran-4-yl)-1H-indazol-5-yl)amino)isoindoline-1,3-dione] | 33 to 66% |  |  | < 0.01 µM | > 0.1 µM
11 | Cc1cc(-c2cc3c(cnn3[C@@H]3CCOC3)cc2Nc2cccc3c2C(=O)N([C@H]2CCC(=O)NC2=O)C3=O)ccn1 [Compound 44, 2-((S)-2,6-dioxopiperidin-3-yl)-4-((6-(2-methylpyridin-4-yl)-1-((R)-tetrahydrofuran-3-yl)-1H-indazol-5-yl)amino)isoindoline-1,3-dione] | 66 to 100% | 0.01 to 0.1 µM | 0.03 to 0.1 µM |  | 
12 | Cc1nccc(-c2cc3c(cc2Nc2cccc4c2C(=O)N(C2CCC(=O)NC2=O)C4=O)N(C)C(=O)CC3)c1Cl (stereo not drawn) [Compound 47, 4-((6-(3-chloro-2-methylpyridin-4-yl)-1-methyl-2-oxo-1,2,3,4-tetrahydroquinolin-7-yl)amino)-2-(2,6-dioxopiperidin-3-yl)isoindoline-1,3-dione] | 66 to 100% |  |  | < 0.01 µM | < 0.03 µM
